In the test the test system is rat model of acute myocardial infarction. The test can be described thus: Peptide 1 treatment for 1 day versus 3 days, cardiac function by transthoracic echocardiography in a rat model of acute myocardial infarction. In kind it is in vivo, male Sprague Dawley rats. As for the experimental part:
Myocardial infarction was induced in male Sprague Dawley rats. On day 0 rats were anaesthetized with a mixture of 2 to 2.2% isoflurane USP (Abbot Laboratories, Montreal Canada) in oxygen, and placed on a heating pad (set at 37° C.) to maintain body temperature. The animals were intubated and immediately ventilated with a mixture of 2 to 2.2% isoflurane USP (Abbot Laboratories, Montreal Canada) in oxygen by means of a positive-pressure rodent respirator (CWE model SAR-830/P) set at ≈10 mL/kg bodyweight at a frequency of 70-80 strokes/min. The pericardium was opened to expose the heart and a 5-0 wax coated braided silk suture (Sofsilk™) was placed around the left anterior descending (LAD) coronary artery, approximately 2-3 mm below the left atrium. The suture was briefly snared to verify the size and location of myocardial ischemia based on colour change and was then tied to produce a large anterolateral myocardial infarction (affecting around 45% of the LV). The suture was kept in place for 30 minutes (30 minutes of ischemia) followed by reperfusion. A group of rats receiving sham procedure was also included. […] Fourteen days after ischemia, cardiac function was assessed by transthoracic echocardiography (echocardiograph model Q9, ChisonMedical Imaging Co. connected to a Chison 12.0 MHz probe).

We go through 1 sequence from patent US20260263555A1, “ANNEXIN A1 DELAYED DOSING” (Reso Ther Pharma A/S, priority 2023, published 2026).

No end group written: not given here.

For “AMVSEFLKQAWFIENEEQEYVQTLKSSKGGPGSAVSPYPTFNPSSDV (AMVSEFLKQAWFIENEEQEYVQTLKSSKGGPGSAVSPYPTFNPSSDV-NH2; ends and bridges not checked) [Peptide 1]”, for the setting “14 days post ischemia, tail vein, three daily dosages (0, 3, 6 h post reperfusion) for 1 day or 3 days, 10, 30 or 100 ug/kg”, the “improvement of cardiac output compared to vehicle treatment” value is recorded as 20-30%. For the same sequence, under “at least three dosages, echocardiography 14 days after ischemia, vs vehicle”, the long-term cardiac function result is “significantly improves long-term cardiac function”.
